The subject of one assay is Human Jurkat-E6-1 cells. Briefly: Detection of IL-2 production by Jurkat cells using ELISA. Type of assay: cell-based. The settings on record: anti-CD3/anti-CD28 stimulation 24 hours, read-out: Percentage of the amount of IL-2 secreted by compound treated vs DMSO-treated cells; for activity at 0.33 µM: tested compound 0.33 μM; for activity at 1 µM: tested compound 1.0 μM. The method, then: (§1) Tested compounds: compounds prepared in the Examples of this invention.
Human Jurkat-E6-1 cells were incubated with various concentrations of tested compounds for 30 minutes in a humidified incubator at 37° C. and 5% CO2. Cells were transferred to cell culture plates pre-coated with anti-human CD3 antibody, then soluble anti-human CD28 antibody was added, and cells were stimulated for 24 hours at 37° C. and 5% CO2 in a humidified incubator. The cell culture medium was collected after centrifugation, and was then transferred to a 96-well transparent microtiter plate (Thermo) pre-coated with anti-human IL-2 antibody, incubated at room temperature for 2 hours with gently shaking, washed with washing buffer for 4 times, and then followed the ELISA MAX Deluxe Set Human IL-2 (BioLegend) kit procedures, used a microplate reader (Molecular Device, i3X) to read the GD value at 450 nm. The best standard curve was selected by the microplate reader application software, and the corresponding concentration was calculated according to the GD value of the standard. Results are expressed as a percentage (%) of the amount of IL-2 secreted by compound-treated vs DMSO-treated cells.

The target of a further assay is HPK1 (Homo sapiens, UniProt Q92918). Description: HPK1 kinase activity inhibition test (ADP-Glo, luminescence). The settings on record: 2 μM ATP, 5 nM HPK1, read-out: IC50, inhibitory effects on HPK1 kinase activity. Type of assay: biochemical. The protocol:
The kinase activity of HPK1 is manifested as activity of autophosphorylation and phosphorylation of downstream substrates. In the process of autophosphorylation, additional substrates are not required, and ATP is consumed to generate ADP. The amount of the product is measured by ADP-Glo reagent and luminescence method to reflect kinase activity.
as §1
Preparation of compound stock solution: dissolve the test compound in 100% DMSO to make a 10 mM stock solution;
Preparation of 4×Kinase Reaction Buffer:
Preparation of 2×HPK1 Kinase Solution:
Preparation of 4×ATP Mixture:
Dilute the stock solution of the test compound by 5 times with 100% DMSO, make a 4-fold equal dilution in a 96-well dilution plate, add 1 μL of the compound to 49 μL of kinase reaction buffer, and shake on a microplate shaker for 20 minutes. Transfer 2 μL of 2×HPK1 kinase solution to 384 reaction plate, add 1 μL of the test compound to the 384 reaction plate (Greiner, Cat #784075), centrifuge for 1 minute (1000 rpm/min), incubate at 25° C. for 10 minutes. Transfer 1 μL of the 4×ATP mixture to a 384 reaction plate, centrifuge for 1 minute (1000 rpm/min), and incubate at 25° C. for 60 minutes. In the reaction system, the final concentration of DMSO is 0.5%. Transfer 4 μL of ADP-Glo to a 384 reaction plate, centrifuge for 1 minute (1000 rpm/min), and incubate at 25° C. for 40 minutes. Transfer 8 μL detection solution to a 384 reaction plate, centrifuge for 1 minute (1000 rpm/min), and incubate at 25° C. for 40 minutes. The […] is read using a Biotek multi-function plate reader, and the IC50 (half inhibitory concentration) of the compound is obtained using a four-coefficient nonlinear fitting formula.

Chain of HPK1 (Q92918 whole entry): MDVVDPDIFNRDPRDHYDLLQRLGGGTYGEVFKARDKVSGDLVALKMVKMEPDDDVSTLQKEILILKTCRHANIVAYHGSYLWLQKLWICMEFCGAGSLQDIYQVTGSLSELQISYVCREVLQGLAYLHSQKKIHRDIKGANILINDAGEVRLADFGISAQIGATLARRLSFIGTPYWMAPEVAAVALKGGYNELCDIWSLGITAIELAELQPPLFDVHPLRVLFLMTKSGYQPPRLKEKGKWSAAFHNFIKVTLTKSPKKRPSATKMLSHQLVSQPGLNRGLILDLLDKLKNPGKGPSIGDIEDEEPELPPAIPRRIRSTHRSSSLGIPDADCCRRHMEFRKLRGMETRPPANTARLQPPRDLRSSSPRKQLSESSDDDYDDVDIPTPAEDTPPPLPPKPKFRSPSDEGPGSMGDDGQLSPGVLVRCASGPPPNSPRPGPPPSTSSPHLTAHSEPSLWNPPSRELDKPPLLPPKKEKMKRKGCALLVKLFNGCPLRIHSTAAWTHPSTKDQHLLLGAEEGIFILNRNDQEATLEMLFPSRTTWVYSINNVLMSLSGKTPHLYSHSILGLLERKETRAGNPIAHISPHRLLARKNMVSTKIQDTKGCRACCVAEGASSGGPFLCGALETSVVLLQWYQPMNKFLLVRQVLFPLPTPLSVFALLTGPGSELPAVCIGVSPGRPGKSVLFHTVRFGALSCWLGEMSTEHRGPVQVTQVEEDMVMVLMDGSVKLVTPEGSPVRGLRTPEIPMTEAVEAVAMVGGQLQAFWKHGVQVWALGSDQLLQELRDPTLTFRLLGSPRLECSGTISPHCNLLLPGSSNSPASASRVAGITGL

Take `OC1(CN2CCOCC2)CCN(c2ccc3cc2OCCCOc2cccc(F)c2-c2cc4c-3n[nH]c4cn2)CC1` [Compound 113, 1-{16-fluoro-7,11-dioxa-19,22,23-triazapentacyclo[16.5.2.1^2,6.0^12,17.0^21,24]hexacosa-1(23),2,4,6(26),12(17),13,15,18,20,24-decaen-5-yl}-4-[(morpholin-4-yl)methyl]piperidin-4-ol]: the activity at 0.33 µM in the assay with Human Jurkat-E6-1 cells was found to be 265%. Besides, the IC50 on HPK1 was 5 to 50 nM.

For the molecule `CN1CCN(c2ccc3cc2OCC(O)COc2cccc(F)c2-c2cc4c-3n[nH]c4cn2)CC1` (centres unmarked) [Compound 114, 16-fluoro-5-(4-methylpiperazin-1-yl)-7,11-dioxa-19,22,23-triazapentacyclo[16.5.2.1^2,6.0^12,17.0^21,24]hexacosa-1(23),2,4,6(26),12(17),13,15,18,20,24-decaen-9-ol], the activity at 0.33 µM in the assay on Human Jurkat-E6-1 cells was determined as 239%. The IC50 at HPK1 is not above 5 nM.

Regarding `CN1CCN(c2ccc3cc2OCCCOCc2cccc(F)c2-c2ncc4[nH]nc-3c4n2)CC1` [Compound 115, 17-fluoro-5-(4-methylpiperazin-1-yl)-7,11-dioxa-20,23,24,26-tetraazapentacyclo[17.5.2.1^2,6.0^13,18.0^22,25]heptacosa-1(24),2,4,6(27),13(18),14,16,19,21,25-decaene], the activity at 1 µM in the assay with Human Jurkat-E6-1 cells came to 263%. For the same molecule, the IC50 at HPK1 was 5 to 50 nM.

For `CN1C2CC1CN(c1ccc3cc1OCCCOCc1cccc(F)c1-c1cc4c-3n[nH]c4cn1)C2` [Compound 116, 17-fluoro-5-{6-methyl-3,6-diazabicyclo[3.1.1]heptan-3-yl}-7,11-dioxa-20,23,24-triazapentacyclo[17.5.2.1^2,6.0^13,18.0^22,25]heptacosa-1(24),2,4,6(27),13(18),14,16,19,21,25-decaene], in the assay on Human Jurkat-E6-1 cells, the activity at 0.33 µM is 450%. The IC50 on HPK1 was not above 5 nM.

With `CN1C2CC1CN(c1ccc3cc1OCCCOc1cccc(F)c1-c1cc4c-3n[nH]c4cn1)C2` [Compound 117, 16-fluoro-5-{6-methyl-3,6-diazabicyclo[3.1.1]heptan-3-yl}-7,11-dioxa-19,22,23-triazapentacyclo[16.5.2.1^2,6.0^12,17.0^21,24]hexacosa-1(23),2,4,6(26),12(17),13,15,18,20,24-decaene], the activity at 1 µM with Human Jurkat-E6-1 cells stood at 525%. On HPK1, the IC50 is not above 5 nM.

Regarding `O[C@@H]1COc2cc(ccc2N2CCN3CCOC[C@H]3C2)-c2n[nH]c3cnc(cc23)-c2c(F)cccc2OC1` [Compound 120, (9S)-5-[(9aR)-octahydropyrazino[2,1-c][1,4]oxazin-8-yl]-16-fluoro-7,11-dioxa-19,22,23-triazapentacyclo[16.5.2.1^2,6.0^12,17.0^21,24]hexacosa-1(23),2,4,6(26),12(17),13,15,18,20,24-decaen-9-ol], in the assay on Human Jurkat-E6-1 cells, the activity at 1 µM came to 494%. Moreover, on HPK1, the IC50 is not above 5 nM.

On to `CN1CCN(c2ccc3cc2OCCCOCc2cccc(F)c2-c2cc4c-3n[nH]c4cn2)C[C@@H]1CO` [Compound 121, [(2R)-4-{17-fluoro-7,11-dioxa-20,23,24-triazapentacyclo[17.5.2.1^2,6.0^13,18.0^22,25]heptacosa-1(24),2,4,6(27),13(18),14,16,19,21,25-decaen-5-yl}-1-methylpiperazin-2-yl]methanol], for which the activity at 0.33 µM in the assay with Human Jurkat-E6-1 cells was 467%. The IC50 on HPK1 is not above 5 nM.

As to `O=C1OC[C@H]2CN(c3ccc4cc3OCCCOCc3cccc(F)c3-c3cc5c-4n[nH]c5cn3)CCN12` [Compound 123, (8aR)-7-{17-fluoro-7,11-dioxa-20,23,24-triazapentacyclo[17.5.2.1^2,6.0^13,18.0^22,25]heptacosa-1(24),2,4,6(27),13(18),14,16,19,21,25-decaen-5-yl}-hexahydro-1H-[1,3]oxazolo[3,4-a]pyrazin-3-one], the activity at 1 µM with Human Jurkat-E6-1 cells stood at 440%. The IC50 at HPK1 was not above 5 nM.

For `O=C1OC[C@@H]2CN(c3ccc4cc3OCCCOCc3cccc(F)c3-c3cc5c-4n[nH]c5cn3)CCN12` [Compound 124, (8aS)-7-{17-fluoro-7,11-dioxa-20,23,24-triazapentacyclo[17.5.2.1^2,6.0^13,18.0^22,25]heptacosa-1(24),2,4,6(27),13(18),14,16,19,21,25-decaen-5-yl}-hexahydro-1H-[1,3]oxazolo[3,4-a]pyrazin-3-one], in the assay on Human Jurkat-E6-1 cells, the activity at 1 µM was 630%. The IC50 at HPK1 is not above 5 nM.

With `CN1C[C@H]2CN(c3ccc4cc3OCCCOCc3cccc(F)c3-c3cc5c-4n[nH]c5cn3)CCN2CC1=O` [Compound 127, (9aR)-8-{17-fluoro-7,11-dioxa-20,23,24-triazapentacyclo[17.5.2.1^2,6.0^13,18.0^22,25]heptacosa-1(24),2,4,6(27),13(18),14,16,19,21,25-decaen-5-yl}-2-methyl-octahydro-1H-[1,4]diazino[1,2-a]pyrazin-3-one], in the assay with Human Jurkat-E6-1 cells, the activity at 0.33 µM was determined as 475%. For the same molecule, the IC50 at HPK1 was not above 5 nM.

`CN1C[C@@H]2CN(c3ccc4cc3OCCCOCc3cccc(F)c3-c3cc5c-4n[nH]c5cn3)CCN2CC1=O` [Compound 128, (9aS)-8-{17-fluoro-7,11-dioxa-20,23,24-triazapentacyclo[17.5.2.1^2,6.0^13,18.0^22,25]heptacosa-1(24),2,4,6(27),13(18),14,16,19,21,25-decaen-5-yl}-2-methyl-octahydro-1H-[1,4]diazino[1,2-a]pyrazin-3-one]: the activity at 0.33 µM in the assay on Human Jurkat-E6-1 cells was 452%. At HPK1, the IC50 is not above 5 nM.

As for `OCCN1C2CCC1CN(c1ccc3cc1OCCCOc1cccc(F)c1-c1cc4c-3n[nH]c4cn1)C2` [Compound 145, 2-(3-{16-fluoro-7,11-dioxa-19,22,23-triazapentacyclo[16.5.2.1^2,6.0^12,17.0^21,24]hexacosa-1(23),2,4,6(26),12(17),13,15,18,20,24-decaen-5-yl}-3,8-diazabicyclo[3.2.1]octan-8-yl)ethan-1-ol], the activity at 1 µM in the assay with Human Jurkat-E6-1 cells came to 512%. The IC50 at HPK1 is not above 5 nM.

With `Fc1cccc2c1-c1cc3c(n[nH]c3cn1)-c1ccc(N3CC4CC(C3)N4C3COC3)c(c1)OCCCO2` [Compound 146, 16-fluoro-5-[6-(oxetan-3-yl)-3,6-diazabicyclo[3.1.1]heptan-3-yl]-7,11-dioxa-19,22,23-triazapentacyclo[16.5.2.1^2,6.0^12,17.0^21,24]hexacosa-1(23),2,4,6(26),12(17),13,15,18,20,24-decaene], the activity at 1 µM with Human Jurkat-E6-1 cells was found to be 476%. The IC50 on HPK1 is not above 5 nM.

Take `Fc1cccc2c1-c1cc3c(n[nH]c3cn1)-c1ccc(N3CC4CC(C3)N4CC3CCOCC3)c(c1)OCCCO2` [Compound 147, 16-fluoro-5-{6-[(oxan-4-yl)methyl]-3,6-diazabicyclo[3.1.1]heptan-3-yl}-7,11-dioxa-19,22,23-triazapentacyclo[16.5.2.1^2,6.0^12,17.0^21,24]hexacosa-1(23),2,4,6(26),12(17),13,15,18,20,24-decaene]: the activity at 0.33 µM in the assay with Human Jurkat-E6-1 cells amounted to 429%. At HPK1, the IC50 is not above 5 nM.

Take `CN1C[C@H]2C[C@@H]1CN2c1ccc2cc1OCCCOCc1cccc(F)c1-c1cc3c-2n[nH]c3cn1` [Compound 152, 17-fluoro-5-[(1R,4R)-5-methyl-2,5-diazabicyclo[2.2.1]heptan-2-yl]-7,11-dioxa-20,23,24-triazapentacyclo[17.5.2.1^2,6.0^13,18.0^22,25]heptacosa-1(24),2,4,6(27),13(18),14,16,19,21,25-decaene]: in the assay on Human Jurkat-E6-1 cells, the activity at 0.33 µM is 432%. In addition, the half-maximal inhibitory concentration (IC50) on HPK1 is not above 5 nM.

Consider `Fc1cccc2c1-c1cc3c(n[nH]c3cn1)-c1ccc(N3C[C@@H]4C[C@H]3CN4C3COC3)c(c1)OCCCOC2` [Compound 153, 17-fluoro-5-[(1S,4S)-5-(oxetan-3-yl)-2,5-diazabicyclo[2.2.1]heptan-2-yl]-7,11-dioxa-20,23,24-triazapentacyclo[17.5.2.1^2,6.0^13,18.0^22,25]heptacosa-1(24),2,4,6(27),13(18),14,16,19,21,25-decaene], for which the activity at 0.33 µM in the assay on Human Jurkat-E6-1 cells was 369%. The IC50 on HPK1 is not above 5 nM.

For the origin of these results see US20240383911A1, “AZAINDAZOLE MACROCYCLE COMPOUNDS AND USES THEREOF” (BROADENBIO CO., LTD, priority 2021, published 2024).
